Reference: paper PMC12234328, “A naphthalimide derivative exerts potent antiplatelet and antithrombotic activities without a bleeding tendency” (Frontiers in Pharmacology, 2025)

Key:
[1] = test system: human platelet suspensions stimulated with U46619; assay: U46619-induced platelet aggregation; format: cell-based; settings: 5–50 μM, 1 μM U46619
Excerpt: (§1) This study received approval from the Taipei Medical University–Joint Institutional Review Board (TMU-JIRB-No. N202003148) and adhered to the principles of the Declaration of Helsinki. Informed consent was obtained from all volunteers before their participation. Human platelets were washed and prepared according to previously established methods ([Lu et al., 2019]). Whole blood was collected from healthy participants who had not taken any medications, including nonsteroidal anti-inflammatory drugs or aspirin, in the preceding 2 weeks. The blood was drawn into polypropylene tubes containing an acid citrate–dextrose solution (9:1, v/v). After mixing, the samples were centrifuged at 120 g for 10 min. The upper layer of platelet-rich plasma was collected and supplemented with prostaglandin E1 and heparin. Following further centrifugation at 500 g for 10 min, the platelet pellets were washed twice. The platelets were then resuspended in Tyrode’s solution containing 3.5 mg/mL bovine serum albumin (B.S.A.) to create platelet suspensions. The final Ca^2+ concentration of the platelet suspensions (3.6 × 10^8 cells/mL) was 1 mM.
(§2) Platelet aggregation was measured using a lumi-aggregometer (Payton, Scarborough, Canada) through the turbidimetric method ([Lu et al., 2019]). […] Subsequently, various agonists were added and platelet aggregation was then recorded for an additional 6 min. […]

[2] = test system: human platelet suspensions stimulated with convulxin; assay: Convulxin-induced platelet aggregation; format: cell-based; settings: 10–50 μM, convulxin 4 ng/mL
Excerpt: as §1, §2

[3] = test system: collagen-triggered ATP release in human platelets; assay: ATP release in human platelet suspensions (luciferase/luciferin); format: cell-based; settings: 2.5 and 5 μM, collagen 1 μg/mL, n = 4
Experimental: Adenosine triphosphate (ATP) release and calcium mobilization were assessed as previously described ([Shih et al., 2021]). Luciferase–luciferin and Fura-2 AM were used to detect ATP release and calcium mobilization, respectively. The intensity of luminescence (indicating ATP release) and the fluorescence ratio (340 nm/380 nm) for calcium mobilization were measured using a Hitachi Spectrometer F-7000 (Tokyo, Japan) following the manufacturer’s instructions.
FIGURE 8 Effects of compound 6 on ATP release, calcium mobilization, and GPIIb–IIIa activation triggered by collagen in human platelets. Washed platelets (3.6 × 10^8 cells/mL) were treated with compound 6 (C6, 2.5 and 5 μM) or DMSO and then stimulated with collagen (1 μg/mL) to trigger ATP release (A), calcium mobilization (B), and GPIIb–IIIa activation (C) that were detected using luciferase/luciferin, Fura-2 AM, and APC–PAC1 antibodies, respectively. Data (A–C) are presented as means ± SEM (n = 4). **p < 0.01 and ***p < 0.001 compared with the resting group. #p < 0.05, ##p < 0.01, and ###p < 0.001 compared with the DMSO (solvent control) group.

[4] = test system: thrombus formation in mesenteric venules; assay: Fluorescein sodium-mediated thrombus formation in mesenteric microvessels of mice; format: in vivo; settings: n = 6, mean ± SEM (DMSO 117.7 ± 12.4 s)
Experimental: Male ICR mice (weighing 20–25 g and aged 5–6 weeks) were purchased from BioLasco (Taipei, Taiwan). The animal use protocol for this project was approved by the Affidavit of Approval of Animal Use Protocol–Taipei Medical University (LAC-2020–0074). All animal experiments were conducted in accordance with the Guide for the Care and Use of Laboratory Animals, Eighth Edition (2011).
The mice were anesthetized with an oxygen–air mixture containing 3% isoflurane at a gas flow rate of 1.5–2 L/min. A bolus dose (bolus volume: 20 μL) of compound 6 (0.3 mg/kg, 0.6 mg/kg, or 1.2 mg/kg), DMSO (solvent control; 1.1 g/kg), or aspirin (20 mg/kg; positive control) was intravenously administered through the tail vein before the administering sodium fluorescein (15 mg/kg). The small intestinal segments were placed on a transparent culture dish, and the mesenteric vessels were observed under a microscope. Venules (20–30 μm) were selected and irradiated with light (wavelength <520 nm) to induce endothelial damage, causing thrombus formation and subsequent vessel occlusion. The time required to occlude a microvessel was recorded ([Lin et al., 2013]). A formula for dose translation based on the […] was used to calculate the appropriate dose for use in the mice ([Reagan-Shaw et al., 2008]). [Reagan-Shaw et al. (2008)] reported that the animal dose should not be extrapolated to a human equivalent dose (HED) by a simple conversion based on body weight. […] The formula for dose translation based on BSA is as follows: HED (mg/kg) = Animal dose (mg/kg) multiply by Animal Km/Human Km. Mouse Km is 3 and Human Km is 37.
(§3) FIGURE 3 Effects of compound 6 on thrombosis and hemostasis in mice. Mice were treated with compound 6 (0.3, 0.6, or 1.2 mg/kg), DMSO (solvent control), or aspirin (20 mg/kg; positive control) via intravenous route for 10 min. (A) The microthrombus formation (arrows) in mesenteric venules. Scale bar = 30 μm. […] Each point on the plot indicates a mouse (n = 6). Data (A,B) are presented as means ± SEM (n = 6). *p < 0.05 and ***p < 0.001 compared with the DMSO group.

[5] = test system: tail bleeding (hemostasis); assay: Tail-bleeding assay; format: in vivo; settings: 0.3, 0.6 or 1.2 mg/kg, mice, n = 6
Experimental: For the tail-bleeding assay, the mice were anesthetized with an oxygen–air mixture containing 3% isoflurane at a gas flow rate of 1.5–2 L/min. A bolus dose of compound 6 (0.3 mg/kg, 0.6 mg/kg, or 1.2 mg/kg), DMSO (solvent control; 1.1 g/kg), or aspirin (20 mg/kg; positive control) was intraperitoneally administered for 30 min. A 3-mm incision was then made at the tail tip to induce bleeding. The bleeding tail stump was immediately immersed in saline, and the bleeding time was recorded. […] A formula for dose translation based on the […] was used to calculate the dose for use in the mice ([Reagan-Shaw et al., 2008]).
as §3

With CCCCN1C(=O)c2cccc3c(NCCNC(=O)C45CC6CC(CC(C6)C4)C5)ccc(c23)C1=O [compound 6] as the compound, how does the “Effect on U46619-induced platelet aggregation” value [1] read?
The value was “did not significantly affect”.

And the “Effect on convulxin-induced platelet aggregation” value [2]?
The value was “can inhibit convulxin-induced platelet aggregation”.

And the “Collagen-triggered ATP release” value [3]?
Its value is “markedly reduced”.

And the Occlusion time ([4]; 0.3 mg/kg i.v.)?
The Occlusion time was 211.5 ± 15.8 s.

What about the Occlusion time ([4]; 0.6 mg/kg i.v.) of the same compound?
The Occlusion time was 333.5 ± 45.6 s.

And the Occlusion time ([4]; 1.2 mg/kg i.v.)?
Its Occlusion time is 451.5 ± 27.4 s.

What about the Duration of tail-bleeding [5] of the same compound?
Its Duration of tail-bleeding is “did not significantly affect”.
